Tested on: Wee1
Assay: Contralateral intraductal injection: Wee1 expression in whole MG tissue by RT-qPCR
Format: in vivo, mouse
Conditions: IDI of doxorubicin into pregnant MG vs contralateral DMSO
Protocol: Nulliparous analysis was performed using adult (10-12-week-old) female mice. For timed pregnancies and lactation analysis, CD-1 pregnant adult females were obtained from Charles Rivers. Embryos were examined at the time of mammary gland harvesting to confirm pregnancy state. […] Plugged mice were considered to be PD0.5 on the day of the observed plug. All females used in this study were age matched.
Mice were anesthetized with isoflurane (VetOne, 501017) Prior to intraductal injections, hair was removed from around the nipples using Nair hair remover. Injections into the duct of the nipple were performed with 33 G needles (Hamilton, 7803-05) and a volume of 40 μl per gland. […]
For RNA isolation from FACS purified populations, mammary gland cell suspensions were blocked using Mouse BD Fc Block™ (BD Biosciences) for 10 min. […] Total RNA quality was analyzed by agarose gel electrophoresis and quantified using an ND-1000 spectrophotometer (NanoDrop). cDNA was prepared from 500-1000 ng of total RNA using iScript cDNA synthesis kit (Bio-Rad, 1708841). Quantitative RT-qPCR was performed in triplicates using SsoAdvanced Universal SYBR Green Supermix, (Bio-Rad, 1725272). […]

COc1cccc2c1C(=O)c1c(O)c3c(c(O)c1C2=O)C[C@@](O)(C(=O)CO)C[C@@H]3O[C@H]1C[C@H](N)[C@H](O)[C@H](C)O1 [doxorubicin]
Wee1 expression in whole MG tissue, RT-qPCR: upregulated

From patent US20240374626A1, “METHODS OF ENHANCING MILK PRODUCTION IN LACTATING MAMMALIAN SUBJECTS” (priority 2023, published 2024)
